The target of data set [1] is T1, Branched-chain-amino-acid aminotransferase, mitochondrial (Homo sapiens, UniProt O15382).
T1 sequence (O15382 whole entry): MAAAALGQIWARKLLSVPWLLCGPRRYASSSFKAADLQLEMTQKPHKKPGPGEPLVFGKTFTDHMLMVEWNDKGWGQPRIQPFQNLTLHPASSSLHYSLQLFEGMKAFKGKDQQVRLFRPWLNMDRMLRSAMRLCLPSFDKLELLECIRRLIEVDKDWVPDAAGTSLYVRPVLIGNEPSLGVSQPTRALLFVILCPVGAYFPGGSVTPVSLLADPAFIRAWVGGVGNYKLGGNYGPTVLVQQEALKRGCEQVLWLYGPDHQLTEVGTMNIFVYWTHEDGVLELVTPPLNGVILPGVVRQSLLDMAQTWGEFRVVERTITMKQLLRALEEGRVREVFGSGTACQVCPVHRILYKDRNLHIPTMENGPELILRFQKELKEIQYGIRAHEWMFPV
The data set can be described thus: Inhibition of human BCATm incubated for 10 mins by Amplex red- based fluorescence analysis.

Data set [2] is described as follows: Solubility of compound in PBS at pH 7.4 after 1 hr by chemiluminiscent nitrogen detection method. It is filed as physicochemical.

Values after ≈ are worked out from the molar mass of the structure shown. Bounds are passed on as bounds.

Experimental findings from ChEMBL document CHEMBL3792277, “Structurally Diverse Mitochondrial Branched Chain Aminotransferase (BCATm) Leads with Varying Binding Modes Identified by Fragment Screening” (J Med Chem, 2016) are described below.

A word on the IC50: it is the concentration that gives 50% inhibition. The low end stands for greater potency in that assay, the high end for weaker potency in that assay. In turn, `O=C(O)Cc1ccccc1C(=O)Nc1ccc(-c2cc[nH]n2)cc1` gave an IC50 in data set [1] of 2 µM. That is a single-digit micromolar value.

`Cc1ccccc1NC(=O)c1sc2ncnc(O)c2c1C` showed an IC50 in data set [1] of 50.1 µM.

For the compound `Cc1c(C(=O)N2CCCCC2)sc2ncn(C)c(=O)c12`, the IC50 in data set [1] was over 631 µM.

In data set [1], `CCOC(=O)Cc1ccccc1NC(=O)c1sc2nc[nH]c(=O)c2c1C` had an IC50 of over 63.1 µM.

`Cc1c(C(=O)Nc2ccon2)sc2nc[nH]c(=O)c12` had a 50% inhibitory concentration (IC50) in data set [1] of over 63.1 µM.

In turn, `CC1CNc2c(cccc2S(N)(=O)=O)C1` (configuration not stated) showed an IC50 in data set [1] of over 1260 µM.

Take `Cc1cc2cc(C)c(SCC(=O)O)nc2cc1C`: in data set [1], half-maximal inhibition (IC50) was put at 0.251 µM.

In data set [1], `OCc1ccc2nsnc2c1` had an IC50 of over 1260 µM.

`NC(=O)c1ccccc1-c1ccccc1`: the half-maximal inhibitory concentration (IC50) in data set [1] was 158 µM.

The compound `O=C(CO)NC1CCCc2ccccc21` (configuration not stated) had a half-inhibitory concentration (IC50) in data set [1] of over 1260 µM.

Broadly, the solubility is the dissolved amount per volume that the medium holds. Compound `NC(=O)c1ccc(N2CCc3ccccc3C2=O)cc1` showed an IC50 in data set [1] of 15.8 µM. The same compound yielded a solubility at 1 h in data set [2] of 132 µg/mL (≈ 496 µM).

For `NC(=O)c1sccc1-c1ccccc1`, the IC50 in data set [1] is 158 µM.

In data set [1], `O=C(Nc1ccc(-c2cc[nH]n2)cc1)c1ccccc1` gave a concentration for half-maximal inhibition (IC50) of 5.01 µM. Further, in data set [2], the concentration in solution (solubility at 1 h) was 12 µg/mL (≈ 45.6 µM).

Compound `Nc1ccc(Oc2ccccc2)nn1` showed an IC50 in data set [1] of 126 µM.

Compound `O=C(Nc1cncnc1)c1ccccc1` showed an IC50 in data set [1] of 1000 µM. This IC50 is about 7.9-fold higher than that of the compound before.

`O=C1c2ccccc2CCN1c1ccc(-c2cc[nH]n2)cc1`: half-maximal inhibition in data set [1] (IC50) required 1.58 µM. The same compound had a solubility at 1 h in data set [2] of 94 µg/mL (≈ 325 µM).

With `O=C(O)Cc1noc2ccccc12`, the IC50 in data set [1] is over 1260 µM.

In turn, `O=C(Nc1cnc(-c2cc[nH]n2)nc1)c1ccccc1` showed an IC50 in data set [1] of 3.16 µM. Also, the solubility at 1 h in data set [2] is 82 µg/mL (≈ 309 µM).

With `Cc1c(C(=O)O)sc2ncn(C)c(=O)c12`, in data set [1], half-maximal inhibition (IC50) was put at 63.1 µM.

In data set [1], `NC(=O)NCC(O)c1ccccc1` (configuration not stated) had an IC50 of 794 µM.

In turn, `Cc1c(C(=O)Nc2ccccc2)sc2ncn(C)c(=O)c12` had an IC50 in data set [1] of 7.94 µM. Against the preceding compound, the IC50 is about 100-fold lower.

With `Cc1c(C(=O)Nc2ccccc2S(C)(=O)=O)sc2nc[nH]c(=O)c12`, the half-inhibitory concentration (IC50) in data set [1] was over 63.1 µM.

The compound `Cc1c(C(=O)Nc2ccccc2)sc2ncnc(O)c12` gave an IC50 in data set [1] of 7.94 µM.

The compound `NC(=O)c1ccc(NC(=O)c2ccccc2)cc1` had an IC50 in data set [1] of 50.1 µM. In data set [2], this compound returned a solubility at 1 h of 13 µg/mL (≈ 54.1 µM).

In data set [1], `CC(C)C(Sc1ncnc2ccccc12)C(=O)O` (configuration not stated) had an IC50 of 7.94 µM.

On to `O=C(O)Cc1ccccc1C(=O)Nc1ccccc1`, for which the IC50 in data set [1] was 316 µM.

Compound `CS(=O)(=O)c1ccccc1C(=O)Nc1ccccc1` showed an IC50 in data set [1] of 200 µM.

In data set [1], `NC(=O)c1ccc(NC(=O)c2ccc(Cl)c(Cl)c2)cc1` gave an IC50 of 2.51 µM.

Take `Cc1c(C(=O)NC2CCCC2)sc2ncn(C)c(=O)c12`: the concentration for half-maximal inhibition (IC50) in data set [1] is over 63.1 µM.

In data set [1], `O=C(Nc1ccccc1)c1ccccc1` [N-PHENYLBENZAMIDE] showed an IC50 of over 631 µM.

With `Cc1ccc(NC(=O)c2sc3nc[nH]c(=O)c3c2C)cc1`, the IC50 in data set [1] was over 63.1 µM.

`Cc1cccc(NC(=O)c2sc3nc[nH]c(=O)c3c2C)c1` showed an IC50 in data set [1] of over 63.1 µM.
